Experimental data taken from patent publication US7427608B2, “Protection against and treatment of hearing loss” (The Research Foundation of State University of New York, priority 2001, dated 2008).

Assays:
[1] = system: human lung cancer cell line H460; test: Inhibition of growth of human lung cancer cell line H460; type: cell-based; conditions: NCI-H460, 72 hours, total protein/well
Description: The results are in Table 2, below.

[2] = target: T1, protein tyrosine phosphatase 1B (PTP-1B) (Homo sapiens, UniProt P18031); test: Inhibition of PTP-1B; type: biochemical; conditions: compound at 10 micromolar
T1 sequence (P18031 1-435): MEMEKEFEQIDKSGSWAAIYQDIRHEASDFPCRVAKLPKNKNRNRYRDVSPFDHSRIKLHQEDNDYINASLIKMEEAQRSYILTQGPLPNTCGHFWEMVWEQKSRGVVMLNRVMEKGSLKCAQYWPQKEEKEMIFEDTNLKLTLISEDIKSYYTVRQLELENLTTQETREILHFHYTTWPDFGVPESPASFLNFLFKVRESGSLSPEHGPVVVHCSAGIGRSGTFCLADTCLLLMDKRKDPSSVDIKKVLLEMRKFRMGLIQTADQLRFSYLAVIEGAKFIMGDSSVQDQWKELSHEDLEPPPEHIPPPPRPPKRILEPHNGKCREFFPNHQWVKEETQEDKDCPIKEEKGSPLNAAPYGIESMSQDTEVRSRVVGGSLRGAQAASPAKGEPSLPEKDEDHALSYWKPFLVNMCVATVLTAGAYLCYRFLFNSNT
Description: (§1) Blanks for a particular enzyme indicate that inhibition was not found.

[3] = target: Epidermal Growth Factor Receptor Tyrosine Kinase (EGFRTK) (Homo sapiens, UniProt P00533); test: Inhibition of EGFRTK; type: biochemical; conditions: compound at 10 micromolar
Description: as §1

p55 fyn = p55 fyn (Homo sapiens, UniProt P06241); test: Inhibition of p55 fyn; type: biochemical; conditions: compound at 10 micromolar
Description: as §1

p56 lck = p56 lck (Homo sapiens, UniProt P06239); test: Inhibition of p56 lck; type: biochemical; conditions: compound at 10 micromolar
Description: as §1

[4] = target: full length human purified recombinant pp60^c-src (Homo sapiens, UniProt P12931); test: Inhibition of isolated Src (Lai et al. 1998 assay, intracellular-mimetic conditions); type: biochemical
Chain of full length human purified recombinant pp60^c-src (P12931 whole entry): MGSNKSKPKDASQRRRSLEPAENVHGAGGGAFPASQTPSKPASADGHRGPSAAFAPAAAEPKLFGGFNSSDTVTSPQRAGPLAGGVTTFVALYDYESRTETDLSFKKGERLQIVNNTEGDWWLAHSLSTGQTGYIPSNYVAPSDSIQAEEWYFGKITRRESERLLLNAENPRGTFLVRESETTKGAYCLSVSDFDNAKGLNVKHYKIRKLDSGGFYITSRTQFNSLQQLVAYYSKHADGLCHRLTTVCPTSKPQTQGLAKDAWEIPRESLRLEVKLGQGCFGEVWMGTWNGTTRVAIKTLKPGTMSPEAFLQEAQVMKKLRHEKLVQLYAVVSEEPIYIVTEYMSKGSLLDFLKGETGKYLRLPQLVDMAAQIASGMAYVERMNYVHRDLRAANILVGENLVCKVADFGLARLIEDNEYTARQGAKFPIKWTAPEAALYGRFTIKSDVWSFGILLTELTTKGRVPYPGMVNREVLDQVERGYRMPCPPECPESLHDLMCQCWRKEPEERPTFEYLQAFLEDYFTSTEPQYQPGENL
Description: Subsequent to synthesis, several of the above compounds were tested for inhibition of the growth of human lung cancer cell line H460 and inhibition of isolated Src.

Chain of Epidermal Growth Factor Receptor Tyrosine Kinase (EGFRTK) (P00533 25-1210): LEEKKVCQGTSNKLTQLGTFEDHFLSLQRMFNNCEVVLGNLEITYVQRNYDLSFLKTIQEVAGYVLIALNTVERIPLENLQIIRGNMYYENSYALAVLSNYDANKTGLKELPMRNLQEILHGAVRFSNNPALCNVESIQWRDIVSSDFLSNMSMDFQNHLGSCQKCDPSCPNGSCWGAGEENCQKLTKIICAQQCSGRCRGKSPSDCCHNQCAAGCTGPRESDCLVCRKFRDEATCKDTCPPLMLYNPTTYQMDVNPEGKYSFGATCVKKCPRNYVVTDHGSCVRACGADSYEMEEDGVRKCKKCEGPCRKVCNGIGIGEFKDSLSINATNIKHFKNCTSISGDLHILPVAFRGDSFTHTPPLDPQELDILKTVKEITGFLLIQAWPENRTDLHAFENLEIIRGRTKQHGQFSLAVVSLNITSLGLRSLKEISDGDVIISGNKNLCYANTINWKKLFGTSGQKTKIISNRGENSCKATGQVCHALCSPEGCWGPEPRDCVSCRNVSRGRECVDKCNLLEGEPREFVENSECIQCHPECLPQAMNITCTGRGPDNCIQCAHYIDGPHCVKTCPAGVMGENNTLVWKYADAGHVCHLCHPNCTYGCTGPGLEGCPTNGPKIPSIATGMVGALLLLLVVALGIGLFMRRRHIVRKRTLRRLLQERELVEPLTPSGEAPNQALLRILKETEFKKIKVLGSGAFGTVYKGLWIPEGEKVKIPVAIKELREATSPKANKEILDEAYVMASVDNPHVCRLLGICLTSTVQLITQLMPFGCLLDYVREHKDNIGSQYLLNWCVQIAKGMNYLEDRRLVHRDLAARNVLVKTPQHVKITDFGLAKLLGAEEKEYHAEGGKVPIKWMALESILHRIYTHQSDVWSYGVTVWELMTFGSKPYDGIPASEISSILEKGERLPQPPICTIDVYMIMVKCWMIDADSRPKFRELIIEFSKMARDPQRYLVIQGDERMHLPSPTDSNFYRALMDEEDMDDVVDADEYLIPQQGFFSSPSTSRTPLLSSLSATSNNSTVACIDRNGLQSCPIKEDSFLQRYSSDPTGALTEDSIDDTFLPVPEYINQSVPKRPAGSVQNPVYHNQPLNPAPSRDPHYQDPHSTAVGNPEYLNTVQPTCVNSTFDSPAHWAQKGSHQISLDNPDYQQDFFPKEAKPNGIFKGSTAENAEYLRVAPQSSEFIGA
Chain of p55 fyn (P06241 whole entry): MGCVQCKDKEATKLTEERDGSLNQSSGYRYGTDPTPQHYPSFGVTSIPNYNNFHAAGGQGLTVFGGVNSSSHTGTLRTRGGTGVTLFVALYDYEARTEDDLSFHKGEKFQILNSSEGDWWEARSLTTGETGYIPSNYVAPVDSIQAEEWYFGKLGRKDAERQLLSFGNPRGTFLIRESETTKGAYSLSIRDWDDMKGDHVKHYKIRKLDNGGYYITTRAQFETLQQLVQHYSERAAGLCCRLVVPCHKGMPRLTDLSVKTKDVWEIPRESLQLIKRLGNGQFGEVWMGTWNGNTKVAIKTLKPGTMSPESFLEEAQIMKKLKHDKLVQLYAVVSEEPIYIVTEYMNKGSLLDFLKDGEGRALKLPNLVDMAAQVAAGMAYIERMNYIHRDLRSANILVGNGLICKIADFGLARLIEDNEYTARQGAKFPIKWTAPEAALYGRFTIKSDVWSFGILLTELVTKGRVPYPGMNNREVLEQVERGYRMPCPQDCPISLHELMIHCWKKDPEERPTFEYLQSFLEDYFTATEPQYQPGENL
Chain of p56 lck (P06239 whole entry, species assumed): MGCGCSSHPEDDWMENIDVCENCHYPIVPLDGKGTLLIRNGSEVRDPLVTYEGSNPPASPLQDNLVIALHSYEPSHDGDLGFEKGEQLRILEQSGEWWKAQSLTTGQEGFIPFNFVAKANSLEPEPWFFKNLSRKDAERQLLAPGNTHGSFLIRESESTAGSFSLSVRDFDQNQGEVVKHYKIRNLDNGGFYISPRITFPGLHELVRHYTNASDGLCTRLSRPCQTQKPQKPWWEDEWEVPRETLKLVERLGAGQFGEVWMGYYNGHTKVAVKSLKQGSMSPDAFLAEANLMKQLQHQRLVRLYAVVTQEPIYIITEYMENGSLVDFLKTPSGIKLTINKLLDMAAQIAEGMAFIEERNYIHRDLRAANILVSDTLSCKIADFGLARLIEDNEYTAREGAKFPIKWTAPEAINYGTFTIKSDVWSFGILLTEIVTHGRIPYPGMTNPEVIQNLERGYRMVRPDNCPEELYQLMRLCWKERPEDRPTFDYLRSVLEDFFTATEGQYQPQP

Compound	inhibition at 10 µM [3]	inhibition at 10 µM (p55 fyn)	also measured
COc1ccc(NC(=O)c2cc3cc(F)ccc3[nH]2)cc1CO [Compound 1cccc]	19%	–	IC50 [1]: > 100 µM; inhibition at 10 µM [2]: 20%
O=C(NCc1ccc(Cl)cc1)c1[nH]c2ccc(F)cc2c1-c1ccccc1 [Compound 2gg]	–	–	inhibition at 10 µM [2]: 12%
O=C(NCc1ccc(F)cc1)c1cc2cc(F)ccc2[nH]1 [Compound 1uuu]	–	16%	inhibition at 10 µM [2]: 13%
O=C(NCc1ccccc1F)c1cc2cc(F)ccc2[nH]1 [Compound 1bbb]	–	–	IC50 [1]: > 100 µM
O=C(NCc1ccc([N+](=O)[O-])cc1)c1cc2cc(F)ccc2[nH]1 [Compound 1mmmm]	–	29%	–
COc1ccc(NC(=O)c2[nH]c3ccc(F)cc3c2-c2ccccc2)cc1CO [Compound 2f]	18%	11%	IC50 [1]: 13 ± 0.46 µM
O=C(NCc1cc(O)cc(OCc2ccccc2)c1)c1cc2cc(F)ccc2[nH]1 [Compound 1dddd]	–	–	inhibition at 10 µM [2]: 16%
O=C(Nc1ccccc1O)c1cc2cc(F)ccc2[nH]1 [Compound 1n]	–	–	inhibition at 10 µM (p56 lck): 12%
O=C(NCc1ccc([N+](=O)[O-])cc1)c1[nH]c2ccc(F)cc2c1-c1ccccc1 [Compound 2kk]	–	24%	–
COc1cccc([C@H](C)NC(=O)c2cc3cc(F)ccc3[nH]2)c1 [Compound 1aa]	12%	10%	–
O=C(NCc1cc(C(F)(F)F)cc(C(F)(F)F)c1)c1[nH]c2ccc(F)cc2c1-c1ccccc1 [Compound 2w]	–	–	inhibition at 10 µM [2]: 12%
COc1ccc(CNC(=O)c2cc3cc(F)ccc3[nH]2)cc1 [Compound 1ee]	16%	–	–
O=C(NCc1ccc(Cl)cc1)c1cc2cc(F)ccc2[nH]1 [Compound 1rrr]	–	15%	–
O=C(Nc1ccc(CO)cc1)c1cc2cc(F)ccc2[nH]1 [Compound 1oo]	–	17%	–
O=C(NCc1cc(Br)ccc1F)c1[nH]c2ccc(F)cc2c1-c1ccccc1 [Compound 2ll]	10%	–	–
O=C(NCc1ccc(OCc2ccccc2)c(O)c1)c1cc2cc(F)ccc2[nH]1 [Compound 1jjjj]	–	–	inhibition at 10 µM [2]: 15%
O=C(NCc1cc(F)cc(C(F)(F)F)c1)c1cc2cc(F)ccc2[nH]1 [Compound 1mmm]	–	14%	–
O=C(NCc1ccc(O)c(O)c1)c1cc2cc(F)ccc2[nH]1 [Compound 1gggg]	25%	–	–
O=C(NCc1ccc(F)cc1Cl)c1[nH]c2ccc(F)cc2c1-c1ccccc1 [Compound 2o]	–	12%	–

Compound	inhibition at 10 µM [3]	inhibition at 10 µM (p55 fyn)	also measured
O=C(NCc1ccc(Cl)cc1Cl)c1cc2cc(F)ccc2[nH]1 [Compound 1ss]	–	–	inhibition at 10 µM [2]: 12%
O=C(Nc1cccc(O)c1)c1cc2ccc(O)cc2cc1O [Compound 2f]	–	–	IC50 ([4]; Example 3 hydroxynaphthalene series, 200 μM ATP, read-out: IC50): 16 µM
COc1cc(CNC(=O)c2cc3cc(F)ccc3[nH]2)cc(OC)c1 [Compound 1hhhh]	–	–	inhibition at 10 µM [2]: 17%
O=C(N[C@H](c1ccccc1)[C@H](O)c1ccccc1)c1cc2cc(F)ccc2[nH]1 [Compound 1cc]	19%	–	IC50 [1]: 30 ± 0.66 µM
O=C(NCc1cc(C(F)(F)F)ccc1F)c1cc2cc(F)ccc2[nH]1 [Compound 1aaa]	–	–	inhibition at 10 µM [2]: 12%
O=C(Nc1cc(O)cc(O)c1)c1cc2cc(F)ccc2[nH]1 [Compound 1r]	–	–	inhibition at 10 µM (p56 lck): 11%
O=C(NCc1ccc(CO)cc1)c1cc2cc(F)ccc2[nH]1 [Compound 1oooo]	33%	–	IC50 [1]: 74 ± 2.7 µM; inhibition at 10 µM (p56 lck): 10%
CCCOc1ccc(CNC(=O)c2cc3cc(F)ccc3[nH]2)cc1O [Compound 1nnnn]	17%	11%	–
O=C(NCc1cccc(F)c1)c1[nH]c2ccc(F)cc2c1-c1ccccc1 [Compound 2g]	–	–	IC50 [1]: 13 ± 0.56 µM
O=C(N[C@@H](c1ccccc1)[C@@H](O)c1ccccc1)c1cc2cc(F)ccc2[nH]1 [Compound 1dd]	41%	–	IC50 [1]: 33 ± 0.78 µM
CCCOc1ccc(NC(=O)c2[nH]c3ccc(F)cc3c2-c2ccccc2)cc1CO [Compound 2d]	23%	–	–
O=C(Nc1ccccc1CO)c1cc2cc(F)ccc2[nH]1 [Compound 1xxx]	–	–	inhibition at 10 µM [2]: 12%
O=C(NCc1cc(F)cc(F)c1)c1[nH]c2ccc(F)cc2c1-c1ccccc1 [Compound 2y]	20%	–	–
O=C(NCc1cccc(F)c1)c1cc2cc(F)ccc2[nH]1 [Compound 1z]	26%	–	IC50 [1]: 15 ± 1.6 µM
O=C(NCc1cccc(O)c1)c1[nH]c2ccc(F)cc2c1-c1ccccc1 [Compound 3q]	–	–	IC50 [1]: 30 ± 0.34 µM
O=C(Nc1ccc(OCc2ccccc2)c(CO)c1)c1[nH]c2ccc(F)cc2c1-c1ccccc1 [Compound 2e]	10%	–	–
O=C(NCc1cc(OCc2ccccc2)cc(OCc2ccccc2)c1)c1cc2cc(F)ccc2[nH]1 [Compound 1iiii]	12%	–	–
N=c1oc2c(O)cccc2cc1C(=O)Nc1cccc(O)c1 [Iminochromene 9TA, iminochromene 9TA, reference compound]	–	–	% Inhibition at 100 μM (std. dev.) ([4]; Example 3 hydroxynaphthalene series and published inhibitors, 100 μM inhibitor, 198 μM ATP): 30 (+/−15) %
O=C(NCCCCCCO)c1cc2cc(F)ccc2[nH]1 [Compound 1qqqq]	18%	–	–

Compound	inhibition at 10 µM [3]	inhibition at 10 µM (p55 fyn)	also measured
COc1cc(CNC(=O)c2cc3cc(F)ccc3[nH]2)ccc1OCc1ccccc1 [Compound 1qqq]	–	11%	–
Cc1ccccc1CNC(=O)c1cc2cc(F)ccc2[nH]1 [Compound 1ffff]	12%	–	–
O=C(NCc1ccccc1)c1cc2cc(F)ccc2[nH]1 [Compound 1bb]	19%	–	IC50 [1]: 82 ± 3.5 µM
O=C(NCc1cccc(C(F)(F)F)c1)c1cc2cc(F)ccc2[nH]1 [Compound 1jj]	–	18%	–
O=C(NCC1(O)CCCCC1)c1[nH]c2ccc(F)cc2c1-c1ccccc1 [Compound 2b]	19%	13%	–
O=C(NCc1ccccc1F)c1[nH]c2ccc(F)cc2c1-c1ccccc1 [Compound 2s]	33%	11%	IC50 [1]: 26 ± 0.34 µM; inhibition at 10 µM (p56 lck): 10%
O=C(NCc1ccc(C(F)(F)F)cc1)c1[nH]c2ccc(F)cc2c1-c1ccccc1 [Compound 2j]	20%	–	–
O=C(NCc1ccc(F)cc1C(F)(F)F)c1[nH]c2ccc(F)cc2c1-c1ccccc1 [Compound 2hh]	12%	–	–
O=C(Nc1cccc(CO)c1)c1cc2cc(F)ccc2[nH]1 [Compound 1yyy]	11%	–	IC50 [1]: 104 ± 10 µM
O=C(Nc1ccc(Oc2ccccc2)cc1)c1cc2cc(F)ccc2[nH]1 [Compound 1k]	–	13%	–
Cc1cccc(Cl)c1CNC(=O)c1cc2cc(F)ccc2[nH]1 [Compound 1xx]	–	14%	–
O=C(c1cc2cc(F)ccc2[nH]1)N1CCOCC1 [Compound 1w]	–	10%	–
CCCN(CCC)C(=O)c1cc2cc(F)ccc2[nH]1 [Compound 1g]	–	19%	–
Cc1cc(C)cc(NC(=O)c2cc3cc(F)ccc3[nH]2)c1 [Compound 1t]	–	11%	–
O=C(NCCc1c[nH]c2ccccc12)c1cc2cc(F)ccc2[nH]1 [Compound 1u]	–	10%	–
O=C(NCc1cccc(I)c1)c1cc2cc(F)ccc2[nH]1 [Compound 1ff]	24%	–	–
O=C(NCc1ccccc1Cl)c1cc2cc(F)ccc2[nH]1 [Compound 1yy]	–	12%	inhibition at 10 µM [2]: 10%
O=C(NCc1ccc(Br)cc1)c1cc2cc(F)ccc2[nH]1 [Compound 1kkkk]	30%	–	–
COc1cc(OC)c(CNC(=O)c2cc3cc(F)ccc3[nH]2)c(OC)c1 [Compound 1rr]	–	–	inhibition at 10 µM (p56 lck): 12%
